# Assay results published in US6924266B2, “NTP-peptides and method for removal of tumors” (Nymox Corporation, priority 2001, dated 2005).
# Test system: muscle tissue, subcutaneous connective tissue, and dermis
# Assay: Effect on tissue at sites of injection in normal rats, histopathology at 24 hours
# Format: in vivo
# Conditions: for effect on tissue at sites of injection (histopathology): injected in skin, subcutaneously and in extremity skeletal muscle, in saline, 100 to 400 mL at 0.1-1 mg/mL, sacrificed at 24 hours; for muscle changes at injection sites compared with controls: extremity skeletal muscle injection; for muscle changes at injection sites compared with controls / spread of necrosis / cell death beyond the site of injection: 24 hours; for spread of necrosis / cell death beyond the site of injection: local injection
# Protocol: (§1) Eight normal rats were injected in the skin and subcutaneously, each in four different foci, and in extremity skeletal muscle, each in two different foci, with NTP peptide #43 in saline in quantities of […] at concentrations of 0.1-1 mg/mL delivered from plastic syringes through stainless steel 26 gauge needles.
# The 48 individual foci of infiltration were excised, fixed in 10% formalin, embedded in paraffin, and stained and examined by standard histopathological methods.
# Similar groups of control rats were injected with (1) bovine serum albumin 0.1% in saline, (2) normal human serum, (3) physiological saline, (4) noninfectious bacterial proteins, and (5) control peptides and purified and then examined and sacrificed as above, with the excised foci of injection treated as above.
# as §1, with “#17” for “#43”
# The controls were the same as Example 1.
# as §1, with “#20” for “#43”
# as §1, with “#19” for “#43”
# as §1, with “#16” for “#43”
# as §1, with “#15” for “#43”
# as §1, with “#14” for “#43”
Sequence,effect on tissue at sites of injection (histopathology),muscle changes at injection sites compared with controls,spread of necrosis / cell death beyond the site of injection
FILFFLRHRCPTL (listed as Homo sapiens) [NTP peptide #19],cell death and necrosis of tissue at the injection sites,–,–
FILFFLRHRCPTLTQDEVQWCDHSS (listed as Homo sapiens) [NTP peptide #20],cell death and necrosis of tissue at the injection sites,entire fields of muscle fiber layers were necrotic,did not appear to spread far beyond the site of injection
KCWDYRRAAVPGL (listed as Homo sapiens) [NTP peptide #14],cell death and necrosis of tissue at the injection sites,–,–
KCWDYRRAAVPGLFILFFL (listed as Homo sapiens) [NTP peptide #15],cell death and necrosis of tissue at the injection sites,–,–
KCWDYRRAAVPGLFILFFLRHRCP (listed as Homo sapiens) [NTP peptide #16],cell death and necrosis of tissue at the injection sites,–,–
KCWDYRRAAVPGLFILFFLRHRCPTLTQDEVQWCDHSS (listed as Homo sapiens) [NTP peptide #17],abundant acute necrosis of tissue at the injection sites,entire fields of muscle fiber layers were necrotic,did not appear to spread far beyond the site of injection
